In ChEMBL document CHEMBL1143470, “Synthesis and anticonvulsant activity of 7-alkoxyl-4,5-dihydro-[1,2,4]triazolo[4,3-a]quinolines” (Bioorg Med Chem Lett, 2005):

Legend:
[1] = test system: Mus musculus; test: Concentration producing seizure after 4 hrs tested by MES (Maximal ElectroShock test) done after 30 min of administration in mouse; na=no activity; type: functional, organism-based
[2] = organism: Mus musculus; test: Concentration producing anticonvulsant drug-induced neurologic deficit after 4 hrs done by rotarod ataxia test in mouse; na=no activity; type: functional, organism-based
[3] = test system: Mus musculus; test: Concentration producing seizure after 4 hrs tested by ScMet (Subcutaneous pentylenetetrazole test) done after 30 min of administration of 85 mg/kg pentylenetetrazol in mouse; na=no activity; type: functional, organism-based; set-up: dose 85 mg/kg
[4] = organism: Mus musculus; test: Concentration of compound producing anticonvulsant drug-inducedneurologic deficit after 0.5 hrs done by rotarod ataxia test in mouse; conditions: in vivo
[5] = test system: Mus musculus; test: Concentration producing seizure after 0.5 hrs tested by MES (Maximal ElectroShock test) done after 30 min of administration in mouse
[6] = test system: Mus musculus; test: Concentration producing seizure after 0.5 hrs tested by ScMet (Subcutaneous pentylenetetrazole test) done after 30 min of administration of 85 mg/kg pentylenetetrazol in mouse
[7] = organism: Mus musculus; test: Protective index (TD50/ED50) produced by compound in mouse after MES test
[8] = organism: Mus musculus; test: Protective index (TD50/ED50) produced by compound in mouse after ScMet test
[9] = test system: Mus musculus; test: Anticonvulsant activity of compound expressed in terms of median effective dose (ED50) produced after MES test in mouse by i.p. administration (range 17-24.5); conditions: ip
[10] = test system: Mus musculus; test: Anticonvulsant activity of compound expressed in terms of median effective dose (ED50) produced after ScMet test in mouse by i.p. administration (range 9.3-13.1); conditions: ip
[11] = organism: Mus musculus; test: Concentration of compound producing anticonvulsant drug-induced neurologic deficit after 0.5 hrs done by rotarod ataxia test in mouse; na=no activity; type: functional, organism-based
[12] = test system: Mus musculus; test: Anticonvulsant activity of compound expressed in terms of median effective dose (ED50) produced after MES test in mouse by i.p. administration (range 11.5-15.8); conditions: ip
[13] = test system: Mus musculus; test: Anticonvulsant activity of compound expressed in terms of median effective dose (ED50) produced after ScMet test in mouse by i.p. administration (range 12.5-20.6); conditions: ip
[14] = test system: Mus musculus; test: Concentration producing seizure after 0.5 hrs tested by MES (Maximal ElectroShock test) done after 30 min of administration in mouse; na=no activity; type: functional, organism-based
[15] = test system: Mus musculus; test: Concentration producing seizure after 0.5 hrs tested by ScMet (Subcutaneous pentylenetetrazole test) done after 30 min of administration of 85 mg/kg pentylenetetrazol in mouse; na=no activity; type: functional, organism-based; set-up: dose 85 mg/kg
[16] = test system: Mus musculus; test: Anticonvulsant activity of compound expressed in terms of median effective dose (ED50) produced after ScMet test in mouse by i.p. administration; conditions: ip
[17] = test system: Mus musculus; test: Concentration producing seizure after 4 hrs tested by MES (Maximal ElectroShock test) done after 30 min of administration in mouse
[18] = organism: Mus musculus; test: Concentration of compound producing anticonvulsant drug-inducedneurologic deficit after 0.5 hrs done by rotarod ataxia test in mouse; conditions: in vivo; remark: listed apart in the source
[19] = test system: Mus musculus; test: Anticonvulsant activity of compound expressed in terms of median effective dose (ED50) produced after MES test in mouse by i.p. administration (range 12.9-10.9); conditions: ip
[20] = test system: Mus musculus; test: Anticonvulsant activity of compound expressed in terms of median effective dose (ED50) produced after ScMet test in mouse by i.p. administration (range 5.7-7.9); conditions: ip
[21] = test system: Mus musculus; test: Concentration producing seizure after 0.5 hrs tested by ScMet (Subcutaneous pentylenetetrazole test) done after 30 min of administration of 85 mg/kg pentylenetetrazol in mouse (no activity)
[22] = test system: Mus musculus; test: Anticonvulsant activity of compound expressed in terms of median effective dose (ED50) produced after MES test in mouse by i.p. administration (range 19.5-28); conditions: ip
[23] = test system: Mus musculus; test: Anticonvulsant activity of compound expressed in terms of median effective dose (ED50) produced after ScMet test in mouse by i.p. administration (range 21.4-28.2); conditions: ip
[24] = test system: Mus musculus; test: Anticonvulsant activity of compound expressed in terms of median effective dose (ED50) produced after MES test in mouse by i.p. administration (range 5.5-14.1); conditions: ip
[25] = test system: Mus musculus; test: Anticonvulsant activity of compound expressed in terms of median effective dose (ED50) produced after MES test in mouse by i.p. administration (range 247-338); conditions: ip
[26] = test system: Mus musculus; test: Anticonvulsant activity of compound expressed in terms of median effective dose (ED50) produced after ScMet test in mouse by i.p. administration (range 123-177); conditions: ip
[27] = test system: Mus musculus; test: Anticonvulsant activity of compound expressed in terms of median effective dose (ED50) produced after MES test in mouse by i.p. administration (range 14.8-20.4); conditions: ip
[28] = test system: Mus musculus; test: Anticonvulsant activity of compound expressed in terms of median effective dose (ED50) produced after ScMet test in mouse by i.p. administration (range 21.6-26.7); conditions: ip
[29] = test system: Rattus norvegicus; test: Neurotoxicity expressed as median toxic dose (TD50) produced after Rotarod ataxia test in mouse by i.p. administration (range 62.8-72.9); type: functional; conditions: ip

COc1ccc(COc2ccc3c(c2)CCc2nncn2-3)cc1
DOSE [1]: No activity
DOSE [2]: No activity
DOSE [3]: No activity
Dose [4]: 300 mg/kg
Dose [5]: 100 mg/kg
Dose [6]: 100 mg/kg

Cc1ccc(COc2ccc3c(c2)CCc2nncn2-3)cc1
DOSE [1]: No activity
DOSE [2]: No activity
DOSE [3]: No activity
PI [7]: 3.2
PI [8]: 5.9
Dose [4]: 100 mg/kg
Dose [5]: 30 mg/kg
ED50 [9]: 20.5 mg/kg
ED50 [10]: 11.1 mg/kg
Dose [6]: 30 mg/kg

Clc1ccc(COc2ccc3c(c2)CCc2nncn2-3)cc1
DOSE [1]: No activity
DOSE [2]: No activity
DOSE [11]: No activity
DOSE [3]: No activity
Dose [5]: 300 mg/kg
Dose [6]: 300 mg/kg

CCCCCCOc1ccc2c(c1)CCc1nncn1-2
DOSE [1]: No activity
DOSE [2]: No activity
DOSE [3]: No activity
PI [7]: 2.2
PI [8]: 1.7
Dose [4]: 100 mg/kg
Dose [5]: 30 mg/kg
ED50 [12]: 13.5 mg/kg
ED50 [13]: 17.7 mg/kg
Dose [6]: 30 mg/kg

CCOc1ccc2c(c1)CCc1nncn1-2
DOSE [14]: No activity
DOSE [2]: No activity
DOSE [11]: No activity
DOSE [15]: No activity

Clc1ccc(COc2ccc3c(c2)CCc2nncn2-3)cc1Cl
DOSE [1]: No activity
DOSE [14]: No activity
DOSE [2]: No activity
DOSE [11]: No activity
DOSE [3]: No activity
DOSE [15]: No activity

c1cc2c(cc1COc1ccc3c(c1)CCc1nncn1-3)OCO2
DOSE [1]: No activity
DOSE [2]: No activity
DOSE [3]: No activity
Dose [4]: 300 mg/kg
Dose [5]: 100 mg/kg
Dose [6]: 100 mg/kg

O=C1NC(=O)C(c2ccccc2)(c2ccccc2)N1 [PHENYTOIN]
PI [8]: <0.22
ED50 [16]: > 300 mg/kg

CCCCOc1ccc2c(c1)CCc1nncn1-2
DOSE [1]: No activity
DOSE [2]: No activity
DOSE [3]: No activity
Dose [4]: 100 mg/kg
Dose [5]: 100 mg/kg
Dose [6]: 100 mg/kg

Fc1ccc(COc2ccc3c(c2)CCc2nncn2-3)cc1
DOSE [2]: No activity
DOSE [3]: No activity
PI [7]: 4.6
PI [8]: 8.1
Dose [17]: 30 mg/kg
Dose [18]: 100 mg/kg
Dose [5]: 30 mg/kg
ED50 [19]: 11.8 mg/kg
ED50 [20]: 6.7 mg/kg
Dose [6]: 30 mg/kg

CCCCCCCCCCCCOc1ccc2c(c1)CCc1nncn1-2
DOSE [1]: No activity
DOSE [14]: No activity
DOSE [2]: No activity
DOSE [11]: No activity
DOSE [3]: No activity
DOSE [15]: No activity

CCCCCCCCOc1ccc2c(c1)CCc1nncn1-2
DOSE [1]: No activity
DOSE [2]: No activity
DOSE [11]: No activity
DOSE [3]: No activity
Dose [5]: 100 mg/kg
Dose [21]: 100 mg/kg

Brc1cccc(COc2ccc3c(c2)CCc2nncn2-3)c1
DOSE [1]: No activity
DOSE [2]: No activity
DOSE [3]: No activity
PI [7]: 4.2
PI [8]: 4
Dose [4]: 100 mg/kg
Dose [5]: 30 mg/kg
ED50 [22]: 23.3 mg/kg
ED50 [23]: 24.5 mg/kg
Dose [6]: 30 mg/kg

NC(=O)N1c2ccccc2C=Cc2ccccc21 [CARBAMAZEPINE]
PI [8]: <0.22
ED50 [16]: > 100 mg/kg
ED50 [24]: 8.8 mg/kg

CCCC(CCC)C(=O)O [VALPROIC ACID]
ED50 [25]: 272 mg/kg
ED50 [26]: 149 mg/kg

Fc1cccc(F)c1COc1ccc2c(c1)CCc1nncn1-2
DOSE [1]: No activity
DOSE [14]: No activity
DOSE [2]: No activity
DOSE [11]: No activity
DOSE [3]: No activity
DOSE [15]: No activity

c1ccc(COc2ccc3c(c2)CCc2nncn2-3)cc1
DOSE [1]: No activity
DOSE [2]: No activity
DOSE [3]: No activity
PI [7]: 3.5
PI [8]: 2.6
Dose [4]: 100 mg/kg
Dose [5]: 30 mg/kg
ED50 [27]: 17.3 mg/kg
ED50 [28]: 24 mg/kg
Dose [6]: 100 mg/kg

Fc1ccccc1COc1ccc2c(c1)CCc1nncn1-2
DOSE [1]: No activity
DOSE [2]: No activity
DOSE [11]: No activity
DOSE [3]: No activity
Dose [5]: 300 mg/kg
Dose [6]: 300 mg/kg

CCCOc1ccc2c(c1)CCc1nncn1-2
DOSE [1]: No activity
DOSE [2]: No activity
DOSE [3]: No activity
Dose [4]: 100 mg/kg
Dose [5]: 100 mg/kg
Dose [6]: 100 mg/kg

CCC1(c2ccccc2)C(=O)NC(=O)NC1=O [PHENOBARBITAL]
ED50 [29]: 69 mg/kg
